Results reported in patent publication US9777014B2, “Tetrahydro-2H-pyrano[3,2-C]isochromene-6-ones and analogs for the treatment of inflammatory disorders” (Council of Scientific & Industrial Research, priority 2013, dated 2017).
“Also recorded” adds a separate entry of the source.

What was measured:
IL-4 = IL-4 production in stimulated splenocytes; type: cell-based; conditions: at low micromolar to nanomolar concentrations
IL-6 [1] = test: IL-6 production in Con A/LPS stimulated splenocytes (ELISA); type: cell-based; conditions: for IC50: Splenocyte, splenocytes, Con A or LPS, 72 h, ELISA; for inhibition of IL-6 production (in words): at low micromolar to nanomolar concentrations
Experimental: (§1) Splenocytes were seeded into three to four wells of a 96-well flat-bottom microtiter plate (Nunc) at 2×10^6 cells/ml. Cells were incubated with different concentrations of compounds (0.1 μM-100 μM) along with Con A (2.5 μg/well) or LPS (1 μg/ml) for 72 h at 37° C. with 5% CO2 in CO2 incubator. The culture supernatants were harvested and the measurement of cytokines (TNF-α and IL-6) in the culture supernatants was carried out using commercial kits as per manufacturer's instructions by using ELISA kits (R&D, USA) (Life Sci. 2007, 80, 1525-1538; J. Immunol. Methods 1983, 65, 55-63).

nitric oxide (NO) = test: Nitric oxide (NO) in serum, in-vivo LPS-induced model (Griess assay); set-up: species or system Balb/c mice
Description: (§2) Macrophages are the main source of cytokines in inflammation. Lipopolysaccharides LPS may stimulate macrophages to produce large quantities of proinflammatory cytokines that promote inflammation. In this study, we investigated the effect of compounds 1-3 on the expression and secretion of cytokines (TNF-α/IL-6) in vivo in cell supernatant and serum. For this study, male Balb/c mice (5-6 weeks of age) were maintained under pathogen-free conditions in an animal housing unit in a temperature-controlled (23±2° C.) and light-controlled (12 h light/dark cycle) room. Animals were provided standard rodent chow and water ad libitum. Female Balb/C mice (8-10 weeks) were obtained from animal house, 3 or 4 per cage with a 12 h light/dark cycle, provided standard water ad libitum, and acclimated to their environment at least a week before the start of experiments. One hour prior to the start of each experiment, feed and water were removed from the cages. Mice were treated with 10 mg/kg and 100 mg/kg of compounds 1-3 orally over a period of 5 days. LPS 10 μg/ml was injected and blood as well macrophages were collected. The dose was selected based on in vitro result.
(§3) Measurement of in vivo serum levels of TNF-α and IL-6: The mice were divided into 4 groups: no treatment group, injected with phosphate buffered saline (PBS); LPS only; LPS+Dexamethasone (0.05 μg/ml); or LPS+compound 1 at 10 and 100 μM doses (n=6 for each group). Groups were pretreated orally with 200 μl of PBS, dexamethasone or compounds 1, 2, 3 for 45 min. Lipopolysaccharide (100 nM) was then administered (200 μL) i.p for treatment groups, and RPMI was administered i.p for the negative control group.
NO determination by Griess assay: NO production was indirectly assessed by measuring the nitrite level in the cultured media and serum determined by a colorimetric method based on the griess reaction. The cells were incubated with cinnamic aldehyde, cinnamic alcohol, cinnamic acid, coumarin (0, 6.25, 12.5, 25, and 50 μM) in presence of LPS (100 ng/mL) at 37° C. for 24 h. Then, cells were dispensed into 96-well plates, and […] of each supernatant was mixed with the same volume of griess reagent (1% sulfanilamide, 0.1% naphthyl ethylenediamine dihydrochloride and 5% phosphoric acid) and incubated at room temperature for 10 min., the absorbance was measured at 540 nm with a Micro-Reader (Molecular Devices, Orleans Drive, Sunnyvale, Calif.). Serum samples were diluted four times with distilled water and deproteinized by adding 1/20 volume of zinc sulphate (300 g/L) to final concentration of 15 g/L. After centrifugation at 10,000×g for 5 min at room temperature, 100 μL supernatant was applied to a microtitre plate well, followed by 100 μL of Griess reagent. After 10 min of color development at room temperature, the absorbance was measured at 540 nm with a Micro-Reader. By using sodium nitrite to generatea standard curve, the concentration of nitrite was measured by absorbance at 540 nm (J. Ethnopharmacology, 2011, 135, 545-552).

T-cell = test: Effect on T-cell proliferation (Con-A stimulated spleen cells, MTT); type: cell-based; conditions: for inhibition of T-cell proliferation (in words): 0.1 μM-100 μM tested; for IC50: T-cell, Con-A stimulated spleen cells, 72 hrs, MTT
Experimental: Compounds provided in present invention were evaluated for their effect on T-cell proliferation. The protocol used for this bioassay is as follows: A single spleen cell suspension was prepared under sterile conditions and suspended in complete medium RPMI 1640 containing 10% Fetal calf serum (FCS). Spleenocytes were seeded into 4-5 wells of a 96-well flat bottom microtitre plate (Nunc) at (2×10^6 cells/ml). Thereafter, Concanavalin (Con-A) in the final concentration of 2.5 μg/well was added to stimulate T-cell, or LPS in the final concentration of 1 μg/ml was added to stimulate B-cell in the respective wells. Variable concentrations of compounds of the present invention (0.1 μM-100 μM) were added. Thereafter, the plates were incubated at 37° C. in 95% humidity at 5% CO2 in a CO2 incubator for 72 hrs. After 72 hours, 50 μl of MTT solution (5 mg/ml) was added to each well and the plates were incubated for 4 h. Thereafter, plates were centrifuged (400×g, 5 min.) and the untransformed MTT was removed. 200 μl of DMSO (192 μl with 8 μl 1N HCl) was added to each well, and the absorbance was determined in an ELISA reader at 570 nm after 15 min (Life Sci. 2007, 80, 1525-1538).

IL-1β = IL-1β production in stimulated splenocytes; type: cell-based; conditions: at low micromolar to nanomolar concentrations
TNF-α [2] = test: TNF-α production in Con A/LPS stimulated splenocytes (ELISA); type: cell-based; conditions: for IC50: Splenocyte, splenocytes, Con A or LPS, 72 h, ELISA; for inhibition of TNF-α production (in words): at low micromolar to nanomolar concentrations
Experimental: as §1

IL-6 [3] = test: IL-6 in serum, in-vivo LPS-induced model; set-up: species or system Balb/c mice
Description: as §2, §3
(§4) Ex vivo TNF-α and IL-6 determination by ELISA: Blood was allowed to clot overnight at 4° C. Serum was analyzed for IL-6, TNF-α, and IL-1β by ELISA. IL-6 analysis was performed using purified and biotin-conjugated rat anti-mouse IL-6 antibodies from PharMingen (San Diego, Calif.) as described previously. Streptavidin—peroxidase (Sigma) and 3,3′,5,5′-tetramethylbenzidine (TMB, Fluka, Ronkonkoma, N.Y.) were used for detection. Absorbance was read at 450 nm using a Vmax™ Kinetic Microplate Reader (Molecular Devices, Menlo Park, Calif.). For TNF-α analysis the OptEIA Set: Mouse TNF-α (Mono/Poly) kit was employed (PharMingen) (J. Immunol. Methods 1983, 65, 55-63).

TNF-α [4] = test: TNF-α in cell supernatant of macrophages, ex vivo LPS-induced model; set-up: species or system Balb/c mice
Description: as §2
(§5) Ex vivo determination of TNF-α, IL-6 & IL-1β in cell supernatant: Blood for serum cytokines production was collected from each treated and untreated animals before the collection of macrophages from peritoneal cavity. Cells were seeded in 96-well plates at 5×10^5 cells mL^−1. Cells were then stimulated with 1 μg mL^−1 LPS for 4 hrs. The cell supernatant was stored at −80° C. The production of TNF-α, IL-6, IL-1β and NO in macrophages cell supernatants of LPS-challenged mice were measured by commercial ELISA kits (B. D. Pharmingenin; R&D systems, Inc., Minneapolis, Minn., USA) and cytokine concentration was determined (J. Am. College Nutr. 2004, 23, 71-78).

TNF-α [5] = test: TNF-α in serum, in-vivo LPS-induced model; set-up: species or system Balb/c mice; conditions: for TNF-α in serum: in-vivo LPS-induced model; for activity against TNF-α in in-vivo LPS model compared with bergenin (1): Table 3, serum
Description: as §2, §3, §4

IL-6 [6] = test: IL-6 in cell supernatant of macrophages, ex vivo LPS-induced model; set-up: species or system Balb/c mice
Description: as §2, §5

IC50 (IL-6 [1]) | IC50 (TNF-α [2]) | SMILES | inhibition of IL-4 production (in words) (IL-4) | inhibition of IL-6 production (in words) (IL-6 [1]) | NO in serum (nitric oxide (NO); Dose 10 (μM as printed)) | NO in serum (nitric oxide (NO); Dose 100 (μM as printed)) | inhibition of T-cell proliferation (in words) (T-cell) | IC50 (T-cell) | inhibition of IL-1β production (in words) (IL-1β) | inhibition of TNF-α production (in words) (TNF-α [2]) | IL-6 in serum (IL-6 [3]; Dose 10 (μM as printed)) | IL-6 in serum (IL-6 [3]; Dose 100 (μM as printed)) | TNF-α in cell supernatant of macrophages (TNF-α [4]; Dose 10 (μM as printed)) | TNF-α in cell supernatant of macrophages (TNF-α [4]; Dose 100 (μM as printed)) | TNF-α in serum (TNF-α [5]; Dose 10 (μM as printed)) | TNF-α in serum (TNF-α [5]; Dose 100 (μM as printed)) | activity against TNF-α in in-vivo LPS model compared with bergenin (1) (TNF-α [5]) | IL-6 in cell supernatant of macrophages (IL-6 [6]; Dose 10 (μM as printed)) | IL-6 in cell supernatant of macrophages (IL-6 [6]; Dose 100 (μM as printed)) | also measured
< 100 nM | < 100 nM | COc1c(O)c(CN2CCN(C)CC2)c2c(c1O)C1OC(CO)C(O)C(O)C1OC2=O (centres unmarked) [Compound 3, 2,3,4,4a-Tetrahydro-3,4,8,10-tetrahydroxy-2-(hydroxymethyl)-9-methoxy-7-((4-methylpiperazin-1-yl)methyl)pyrano[3,2-c]isochromen-6(10bH)-one] | most potent | most potent | 2.87 ± 0.73 µM | 1.24 ± 0.25 µM | most potent | 6100 nM | most potent | most potent | 282 ± 98 ng/mL | 58 ± 12 ng/mL | 78 ± 4.9 pg/mL | 84 ± 6.7 pg/mL | 672 ± 221 pg/mL | 398 ± 62 pg/mL | better activity than bergenin (1) | 12.1 ± 2.81 ng/mL | 21.1 ± 3.2 ng/mL | –
< 100 nM | < 100 nM | CCN(CC)Cc1c(O)c(OC)c(O)c2c1C(=O)OC1C2OC(CO)C(O)C1O (centres unmarked) [Compound 2, 7-((Diethylamino)methyl)-2,3,4,4a-tetrahydro-3,4,8,10-tetrahydroxy-2-(hydroxymethyl)-9-methoxypyrano[3,2-c]isochromen-6(10bH)-one] | most potent | most potent | 5.0 ± 0.80 µM | 3.0 ± 0.73 µM | most potent | < 100 nM | most potent | most potent | 102 ± 40 ng/mL | 275 ± 65 ng/mL | 102 ± 12^ pg/ml | 89 ± 6.4 pg/mL | 585 ± 192 pg/mL | 388 ± 115 pg/mL | better activity than bergenin (1) | 41.4 ± 8.9 ng/mL | 17.3 ± 3.0 ng/mL | –
< 100 nM | 630 nM | COc1c(O)cc2c(c1O)[C@@H]1O[C@H](CO)[C@@H](O)[C@H](O)[C@H]1OC2=O [Compound 1, Bergenin, reference compound] | – | – | 2.62 ± 0.62 µM | 3.29 ± 0.88 µM | – | 100 nM | – | – | 282 ± 98 ng/mL | 55 ± 12 ng/mL | 89 ± 6.1 pg/mL | 78 ± 4.9 pg/mL | 667 ± 208 pg/mL | 509 ± 185 pg/mL | – | 24.6 ± 6.9 ng/mL | 53.5 ± 7.5 ng/mL | inhibition of IL-4 production (in words) (IL-4; listed as Bergenin (1)): showed inhibition; also recorded: most potent; inhibition of IL-6 production (in words) (IL-6 [1]; listed as Bergenin (1)): showed inhibition; also recorded: most potent; inhibition of T-cell proliferation (in words) (T-cell; listed as Bergenin (1)): showed inhibition; also recorded: most potent; inhibition of IL-1β production (in words) (IL-1β; listed as Bergenin (1)): showed inhibition; also recorded: most potent; inhibition of TNF-α production (in words) (TNF-α [2]; listed as Bergenin (1)): showed inhibition; also recorded: most potent
